Experiments:
S.aureus ATCC 6538 [1] = assay: Antibacterial activity of impregnated films, modified ISO 22196 with illumination (Beispiele 11-16, 25); type: cell-based; details: Beispiel 14; TPU film; Rezeptur 1 (nach Beispiel 1); 1 mM photocatalyst in impregnation solution; light 20mW/cm2 10min
S. aureus = assay: Bactericidal effect after steam sterilisation (Beispiel 20), modified ISO 22196; type: cell-based; details: TPU Folie, Rezeptur 1, 1 mM F-24b; after Dampfsterilisation 121°C, 2 h
Description: (§1) Die Bestimmung der antimikrobiellen Aktivität erfolgte nach einer modifizierten Version der ISO 22196:2011-08 ("Messung von antibakterieller Aktivität auf Kunststoff- und anderen porenfreien Oberflächen", Ausgabedatum: 2011-08).
(§2) Bei der Testdurchführung wurde ein dünner Flüssigkeitsfilm, in dem die Bakterien enthalten sind (1,25 x 10^4 /cm^2), direkt auf die Probenkörper (3 x 3 cm) aufgebracht. Direkt nach Beimpfung wurden von der Nullprobe die Bakterien von den Probenkörperoberflächen mittels Ultraschall und Vortexen abgelöst und die Keimzahl (KBE (engl. CFU), Kolonie-bildende Einheit) bestimmt (t0-Wert).
(§3) Nach 4h wurden überlebende Bakterien von den Probenkörperoberflächen mittels Ultraschall und Vortexen abgelöst und die Keimzahl bestimmt (t4-Wert).
(§4) Im Unterschied zu der in der ISO 22196:2011-08 beschreibenen Methode wurde das Inokulum nicht mit einer Folie abgedeckt und die Inkubationszeit wurde von 24 auf 4 Stunden reduziert. Weiterhin wurden die Probenkörper der Proben 3 und 4 mit Licht der Intensität 20mW/cm2 für 10min belichtet, um eine biozide Wirkung nach Bestrahlung mit elektromagnetischer Strahlung zu bestimmen.
Weiterhin wurde die Belastbarkeit des Photokatalysators in der Folie mit zusätzlichen Tests wie Tempern bei 80°C und Dampfsterilisation bei 121°C untersucht.

[2] = Comparative examples 23-25: impregnation of unsuitable plastics or with a fluorescent dye, visual evaluation; type: physicochemical; details: 0,2 mm starke Polycarbonatfolien; 60 min Einwirkzeit
Method: Die Farbstoffkonzentration in der Imprägnierlösung betrug jeweils 1 mM bei Phenalen-1-on- und Curcuminderivaten, 0,1 mM bei Prophycenderivaten.
Es wurden 0,2 mm starke Polycarbonatfolien eingesetzt und mit Imprägnierlösungen enthaltend die Photokatalysatoren F-24b, F-64a oder F-73 behandelt.
Es wurden TPU Folien eingesetzt und mit einer Imprägnierlösung enthaltend den Farbstoff 2-Chloro-6-(3-hydroxypropylamino)-1-phenalenon (CAS 113722-81-9) behandelt.

[3] = Leaching test A: screening immersion 24 h, UV-VIS of supernatant (Beispiel 10 A); type: physicochemical; design: Abs. nach Auswaschen: unit not given here; details: for Berechneter Verlust in %: Rezeptur 1 nach Beispiel 1; for Abs. nach Auswaschen: Rezeptur 1 nach Beispiel 1, supernatant
Method: Um das Auswaschen der verschiedenen Farbstoffe in den Kunststofffolien zu beurteilen, wurde ein Immersionstest in deionisiertem Wasser mit einem pH-Wert von (6 ± 1) (oder gegebenenfalls anderen Lösungsmitteln) und einer Wassertemperatur von (22 ± 3) °C für 24 Stunden durchgeführt.
Dazu wurde ein Folienstück definierter Größe (3 cm x 3 cm) imprägniert (nach Rezeptur 1, Beispiel 1) und anschließend für 24 Stunden in eine definierte Menge deionisiertem Wasser (12,0 mL) gegeben und durch eine Schüttelplatte in Bewegung gehalten. Nach der angegeben Immersionszeit wurde die Folie entnommen und der Überschuss im UV-VIS Spektrometer vermessen, um die ausgewaschene Menge an Farbstoff zu bestimmen. Die Menge wird durch die definierte Größe der Folie und definierte Flüssigkeitsmenge auf einen Quadratzentimeter zurückgerechnet.
Dieser Immersionstest diente dazu, das Auswaschverhalten verschiedener Farbstoffe aus verschiedenen Kunststofffolien zu beurteilen. Weiter sollte er dabei helfen, verschiedene Farbstoffklassen oder verschiedene Farbstoffderivate einer Farbstoffklasse bezüglich dieser Charakteristik miteinander zu vergleichen.
Die zugeschnittenen Folien werden in einem geeigneten Behälter vollständig mit dem Prüfmedium (typischerweise deionisiertes Wasser) bedeckt. Anschließend wird der Behälter zugedeckt und auf die Schüttelplatte aufgebracht. Bei geringer Geschwindigkeit der Platte wird für 24 Stunden gewartet. Nach der Immersion wurden 3 mL des Überstandes durch Absorptionsspektroskopie vermessen.
Die Auswertung erfolgte über das Verhältnis der max. Absorptionswerte einer reinen Farbstofflösung definierter Konzentration und des vermessenen Überstandes. Die Ergebnisse sind in Tabelle 50 dargestellt. Tabelle 50: Auswaschverhalten verschiedener Photokatalysatoren nach Immersionstest A

S.aureus ATCC 6538 [4] = assay: Antibacterial activity of impregnated films, modified ISO 22196 with illumination (Beispiele 11-16, 25); type: cell-based
Description: as §1, §2, §3, §4
Verwendet wurden TPU Folienstücke, die nach dem in Beispiel 4 beschriebenen Verfahren mit Rezeptur 1 behandelt wurden. Rezeptur 1 wurde hergestellt nach Beispiel 2. […] Der Test wurde in Anlehnung an ISO 22196 nach oben beschriebener Methode durchgeführt.
TPU-Folienstücke wurden ebenfalls nach dem in Beispiel 4 beschriebenen Verfahren mit verschiedenen Rezepturen behandelt, die gemäß Beispiel 2 hergestellt wurden. Die Farbstoffkonzentration in der Imprägnierlösung betrug jeweils 1 mM F-24b. Der Test wurde in Anlehnung an ISO 22196 nach oben beschriebener Methode durchgeführt.
Die Farbstoffkonzentration in der Imprägnierlösung betrug jeweils 1 mM.
Die Photokatalysator-Konzentration von F-24b wurde variiert.
Es wurde ein Bakterientest in Anlehnung an ISO 22196 nach oben beschriebener Methode durchgeführt.

verschiedene Virusstämme = assay: Antiviral activity of impregnated films following ISO 21702 with illumination (Beispiel 17); details: TPU film, Rezeptur 1, 1 mM, light 20mW/cm^2 for 83 min
[5] = medium 5% Neutralseife, plastic PVC
[6] = medium 5% Neutralseife, plastic TPU

## CC(C)(O)c1cc[n+](CC2=Cc3cccc4cccc(c34)C2=O)cc1 [F-24b]
S.aureus ATCC 6538 [1]
  Log10 Reduktion Hauptprobe: 4,0 ± 0,3 log10
S. aureus
  Log10 Reduktion Hauptprobe: 1,5 ± 0,3 log10
[2]
  Verfärbung: keine Verfärbung
[3]; [5]
  Berechneter Verlust in %: 3,8%
  Abs. nach Auswaschen: 0,024
[3]; [6]
  Berechneter Verlust in %: 10,7%
  Abs. nach Auswaschen: 0,061
[3]; medium 70% IPA, plastic PVC
  Berechneter Verlust in %: 25,4%
  Abs. nach Auswaschen: 0,160
[3]; medium 70% IPA, plastic TPU
  Berechneter Verlust in %: 34,0%
  Abs. nach Auswaschen: 0,194
[3]; medium Wasser, plastic EVA
  Berechneter Verlust in %: 2,6%
  Abs. nach Auswaschen: 0,015
[3]; medium Wasser, plastic SEPS
  Berechneter Verlust in %: 4,7%
  Abs. nach Auswaschen: 0,027
[3]; medium Wasser, plastic TPU
  Berechneter Verlust in %: 1,4%
  Abs. nach Auswaschen: 0,008
S.aureus ATCC 6538 [4]; Beispiel 13, TPU film, Rezeptur 1 nach Beispiel 2, 1 mM in impregnation solution, light 20mW/cm2 10min
  Log10 Reduktion Hauptprobe: 4,0 ± 0,3 log10
S.aureus ATCC 6538 [4]; Beispiel 13, TPU film, Rezeptur 2 nach Beispiel 2, 1 mM in impregnation solution, light 20mW/cm2 10min
  Log10 Reduktion Hauptprobe: 1,8 ± 1,3 log10
S.aureus ATCC 6538 [4]; Beispiel 13, TPU film, Rezeptur 3 nach Beispiel 2, 1 mM in impregnation solution, light 20mW/cm2 10min
  Log10 Reduktion Hauptprobe: 4,2 ± 0,8 log10
S.aureus ATCC 6538 [4]; Beispiel 13, TPU film, Rezeptur 8 nach Beispiel 3, 1 mM in impregnation solution, light 20mW/cm2 10min
  Log10 Reduktion Hauptprobe: 3,5 ± 0,5 log10
S.aureus ATCC 6538 [4]; Beispiel 15, TPU film, Rezeptur 1, photocatalyst concentration 0,5 mM
  Log10 Reduktion Hauptprobe: 2,5 ± 1,4 log10
S.aureus ATCC 6538 [4]; Beispiel 15, TPU film, Rezeptur 1, photocatalyst concentration 0,25 mM
  Log10 Reduktion Hauptprobe: 2,8 ± 1,3 log10
S.aureus ATCC 6538 [4]; Beispiel 15, TPU film, Rezeptur 1, photocatalyst concentration 1 mM
  Log10 Reduktion Hauptprobe: 3,5 ± 0,5 log10
S.aureus ATCC 6538 [4]; Beispiel 16, film material CPI (Polyimid), Rezeptur 1, 1 mM
  Log10 Reduktion Hauptprobe: 3,0 ± 0,1 log10
S.aureus ATCC 6538 [4]; Beispiel 16, film material Nitril, Rezeptur 1, 1 mM
  Log10 Reduktion Hauptprobe: 3,8 ± 0,3 log10
S.aureus ATCC 6538 [4]; Beispiel 16, film material PET-G, Rezeptur 1, 1 mM
  Log10 Reduktion Hauptprobe: 4,0 ± 0,1 log10
S.aureus ATCC 6538 [4]; Beispiel 16, film material PVC, Rezeptur 1, 1 mM
  Log10 Reduktion Hauptprobe: 3,9 ± 0,8 log10
S.aureus ATCC 6538 [4]; Beispiel 16, film material Silikon, Rezeptur 1, 1 mM
  Log10 Reduktion Hauptprobe: 3,4 ± 0,1 log10
S.aureus ATCC 6538 [4]; Beispiel 16, film material Surlyn, Rezeptur 1, 1 mM
  Log10 Reduktion Hauptprobe: 3,6 ± 0,5 log10
S.aureus ATCC 6538 [4]; Beispiel 16, film material TPU, Rezeptur 1, 1 mM
  Log10 Reduktion Hauptprobe: 4,0 ± 0,3 log10
S.aureus ATCC 6538 [4]; TPU Folie, Rezeptur 1, 1 mM F-24b, Licht 20mW/cm2 für 10min, Gram-positiv
  Log10 Reduktion Hauptprobe: 4,0 ± 0,3 log10
Verschiedene Virusstämme; Virus: Influenza A Virus (H1N1)
  Log10 Reduktion Hauptprobe: 2,5 ± 0,5 log10
Verschiedene Virusstämme; Virus: Modified Vaccinia Virus Ankara (MVA)
  Log10 Reduktion Hauptprobe: 4,6 ± 0,6 log10

— patent EP4458804A1, “METHOD FOR PRODUCING AN OBJECT, PHENALEN-1-ONE COMPOUND AND USE THEREOF” (TriOptoTec GmbH, priority 2023, dated 2024)
